Measured values as given in article PMC6522510 (Nature Communications, 2019).
Where two headings read alike, the source gives them in different places.

Columns and labels:
Set-up in all cases: species or system AML cell lines (8); Primary HTS, single concentration about 10 uM, Cell Titer Glo viability; log10 luminescence, per cent inhibition relative to cycloheximide control
Conditions in all cases: 72 h, relative to cycloheximide control, log10 luminescence, inhibitor
CMS = system: CMS
CHRF288-11 = system: CHRF288-11
M07e = system: M07e
ML-2 = system: ML-2
MOLM-13 = system: MOLM-13
U937 = system: U937
MV4-11 = system: MV4-11
CMK = system: CMK

Fc1ccc(-c2nn3ncccc3c2-c2ccnc(Nc3ccc4c(c3)OCCO4)n2)cc1 [SJ000573081-1, U18020/136/2]
CMS %inh (CMS): 13.71%
CHRF288-11 %inh (CHRF288-11): 0.4339%
M07e %inh (M07e): 1.748%
ML-2 %inh (ML-2): -1.741%
MOLM-13 %inh (MOLM-13): 1.143%
U937 %inh (U937): 35.33%
MV4-11 %inh (MV4-11): 14.42%
CMK %inh (CMK): 3.915%

NC(=O)c1cc(-c2ccncc2)cc(-c2ccccc2)c1N [SJ000573082-1, R11976/162/1]
CMS %inh (CMS): 3.949%
CHRF288-11 %inh (CHRF288-11): 4.55%
M07e %inh (M07e): -1.265%
ML-2 %inh (ML-2): -0.3373%
MOLM-13 %inh (MOLM-13): 11%
U937 %inh (U937): 14.29%
MV4-11 %inh (MV4-11): 10.06%
CMK %inh (CMK): 2.399%

CC1=C(C(=O)Nc2ccc3[nH]ncc3c2)C(c2ccc(F)cc2)N=C(c2ccc(C(F)(F)F)nc2)N1 (stereo not drawn) [SJ000573083-1, GW204431-043A1]
CMS %inh (CMS): -1.221%
CHRF288-11 %inh (CHRF288-11): 5.88%
M07e %inh (M07e): 0.1515%
ML-2 %inh (ML-2): 3.386%
MOLM-13 %inh (MOLM-13): 1.317%
U937 %inh (U937): -1.3%
MV4-11 %inh (MV4-11): 0.5281%
CMK %inh (CMK): 6.755%

NS(=O)(=O)c1ccc(-c2cc3ccncc3cc2OCc2ccccc2)cc1 [SJ000573084-1, R12606/136/38]
CMS %inh (CMS): 4.611%
CHRF288-11 %inh (CHRF288-11): 3.946%
M07e %inh (M07e): 5.451%
ML-2 %inh (ML-2): 1.187%
MOLM-13 %inh (MOLM-13): 2.161%
U937 %inh (U937): 0.3678%
MV4-11 %inh (MV4-11): -2.181%
CMK %inh (CMK): -0.9682%

CCCNc1cccc(-n2ncc3c(N/N=C/c4ccncc4)ncnc32)c1 [SJ000573085-1, U17680/65/1]
CMS %inh (CMS): 0.7041%
CHRF288-11 %inh (CHRF288-11): 2.576%
M07e %inh (M07e): 4.312%
ML-2 %inh (ML-2): -0.9551%
MOLM-13 %inh (MOLM-13): -1.209%
U937 %inh (U937): -0.2236%
MV4-11 %inh (MV4-11): -0.4908%
CMK %inh (CMK): 0.2304%

CN1CCC(C(=O)Nc2n[nH]c3nc(-c4ccc(O)cc4)c(Br)cc23)CC1 [SJ000573086-1, RW100084-040A1 | AN100368-077A1]
CMS %inh (CMS; CMS %inh, 10 µM): 85%
CHRF288-11 %inh (CHRF288-11; CHRF288-11 %inh, 10 µM): 69.8%
M07e %inh (M07e; M07e %inh, 10 µM): 88.26%
ML-2 %inh (ML-2; ML-2 %inh, 10 µM): 63.69%
MOLM-13 %inh (MOLM-13; MOLM-13 %inh, 10 µM): 112.8%
U937 %inh (U937; U937 %inh, 10 µM): 86.11%
MV4-11 %inh (MV4-11; MV4-11 %inh, 10 µM): 81.01%
CMK %inh (CMK; CMK %inh, 10 µM): 70.81%

CN1CCC(C(=O)Nc2n[nH]c3nc(-c4ccc(O)cc4)c(Br)cc23)CC1 [SJ000573086-2, RW100084-040A1 | AN100368-077A1]
CMS %inh (CMS; CMS %inh, 10 µM): 94.2%
CHRF288-11 %inh (CHRF288-11; CHRF288-11 %inh, 10 µM): 68.5%
M07e %inh (M07e; M07e %inh, 10 µM): 63.44%
ML-2 %inh (ML-2; ML-2 %inh, 10 µM): 61.94%
MOLM-13 %inh (MOLM-13; MOLM-13 %inh, 10 µM): 108.5%
U937 %inh (U937; U937 %inh, 10 µM): 85.17%
MV4-11 %inh (MV4-11; MV4-11 %inh, 10 µM): 86.37%
CMK %inh (CMK; CMK %inh, 10 µM): 69.83%

CCC(=O)Nc1ccc(C)c(-c2ccc(C(=O)NCC3CC3)cc2)c1 [SJ000573087-1, R7387/20/4]
CMS %inh (CMS): 2.476%
CHRF288-11 %inh (CHRF288-11): 3.258%
M07e %inh (M07e): 5.006%
ML-2 %inh (ML-2): -0.3215%
MOLM-13 %inh (MOLM-13): 6.641%
U937 %inh (U937): 1.348%
MV4-11 %inh (MV4-11): 5.047%
CMK %inh (CMK): 1.803%

COc1ccc(-c2ccc3c(NC(=O)C4CC4)n[nH]c3n2)cc1 [SJ000573088-1, BS100048-058B1]
CMS %inh (CMS): -1.884%
CHRF288-11 %inh (CHRF288-11): -3.869%
M07e %inh (M07e): -1.122%
ML-2 %inh (ML-2): 1.731%
MOLM-13 %inh (MOLM-13): 4.236%
U937 %inh (U937): 1.777%
MV4-11 %inh (MV4-11): -0.1427%
CMK %inh (CMK): 5.626%

CN1CCN(Cc2ccc(-c3cc4ncnc(Nc5ccc(OCc6cccc(F)c6)c(Cl)c5)c4s3)o2)CC1 [SJ000573089-1, U17540/68/2]
CMS %inh (CMS): 6.304%
CHRF288-11 %inh (CHRF288-11): 89.11%
M07e %inh (M07e): -2.246%
ML-2 %inh (ML-2): -0.8811%
MOLM-13 %inh (MOLM-13): 4.975%
U937 %inh (U937): 9.435%
MV4-11 %inh (MV4-11): 5.617%
CMK %inh (CMK): 14.44%

COc1cc2ncnc(Nc3ccc(C)c(O)c3)c2cc1OC [SJ000573090-1, U13103/179/1]
CMS %inh (CMS): 0.3431%
CHRF288-11 %inh (CHRF288-11): 0.5463%
M07e %inh (M07e): -0.2224%
ML-2 %inh (ML-2): -3.545%
MOLM-13 %inh (MOLM-13): 7.874%
U937 %inh (U937): 0.4968%
MV4-11 %inh (MV4-11): 0.6335%
CMK %inh (CMK): 1.416%

Cc1cc(O)cc(C)c1/C=C/c1cncc(C(=O)OC(C)(C)C)c1 [SJ000573091-1, U11962/36/1]
CMS %inh (CMS): -1.844%
CHRF288-11 %inh (CHRF288-11): -1.68%
M07e %inh (M07e): -1.025%
ML-2 %inh (ML-2): -0.1273%
MOLM-13 %inh (MOLM-13): 2.429%
U937 %inh (U937): -1.9%
MV4-11 %inh (MV4-11): 1.728%
CMK %inh (CMK): 2.193%

c1cc(-c2cnn3nc(N4CCOCC4)ccc23)nc(NC2CC2)n1 [SJ000573092-1, U17157/98/7]
CMS %inh (CMS): -2.802%
CHRF288-11 %inh (CHRF288-11): -0.2849%
M07e %inh (M07e): 1.021%
ML-2 %inh (ML-2): 1.098%
MOLM-13 %inh (MOLM-13): 12.47%
U937 %inh (U937): 4.896%
MV4-11 %inh (MV4-11): 16.51%
CMK %inh (CMK): -4.251%

CS(=O)(=O)CCNCc1ccc(-c2ccc3ncnc(Nc4ccc(OCc5ccccc5)cc4)c3c2)o1 [SJ000573093-1, R1325/200/3]
CMS %inh (CMS): 0.8735%
CHRF288-11 %inh (CHRF288-11): 1.417%
M07e %inh (M07e): 6.213%
ML-2 %inh (ML-2): 1.913%
MOLM-13 %inh (MOLM-13): 25.45%
U937 %inh (U937): -1.059%
MV4-11 %inh (MV4-11): 19.4%
CMK %inh (CMK): 1.449%

COC(=O)Nc1nc2ccc(S(=O)(=O)c3ccc(NC(=O)Nc4cc(C(F)(F)F)ccc4F)cc3)cc2[nH]1 [SJ000573094-1, T229/157/1]
CMS %inh (CMS): 3.097%
CHRF288-11 %inh (CHRF288-11): 9.928%
M07e %inh (M07e): 3.593%
ML-2 %inh (ML-2): -2.541%
MOLM-13 %inh (MOLM-13): 1.464%
U937 %inh (U937): 1.083%
MV4-11 %inh (MV4-11): -0.02364%
CMK %inh (CMK): 2.078%

CN(C)c1cc2c(Nc3ccc4nc(Cc5ccccc5)[nH]c4c3)ncnc2cn1 [SJ000573096-1, R142/81/1]
CMS %inh (CMS): 0.4943%
CHRF288-11 %inh (CHRF288-11): -0.8109%
M07e %inh (M07e): -6.495%
ML-2 %inh (ML-2): -0.4937%
MOLM-13 %inh (MOLM-13): 19.45%
U937 %inh (U937): -0.02909%
MV4-11 %inh (MV4-11): 3.394%
CMK %inh (CMK): 4.629%

Clc1ccc(-c2nn3ncccc3c2-c2ccnc(Nc3ccccc3)n2)cc1 [SJ000573097-1, U17838/189/2]
CMS %inh (CMS): 3.744%
CHRF288-11 %inh (CHRF288-11): 6.42%
M07e %inh (M07e): -1.226%
ML-2 %inh (ML-2): -2.244%
MOLM-13 %inh (MOLM-13): 0.7466%
U937 %inh (U937): -1.31%
MV4-11 %inh (MV4-11): 3.385%
CMK %inh (CMK): 3.667%

Cc1ccc(NC(=O)CC2CC2)cc1-c1ccc(C(=O)NCC2CC2)cc1 [SJ000573098-1, R7387/20/3]
CMS %inh (CMS): 1.599%
CHRF288-11 %inh (CHRF288-11): 2.428%
M07e %inh (M07e): -0.8105%
ML-2 %inh (ML-2): -2.089%
MOLM-13 %inh (MOLM-13): 0.2753%
U937 %inh (U937): 1.321%
MV4-11 %inh (MV4-11): 0.255%
CMK %inh (CMK): 4.183%

CN(c1ccc(NC(=O)Nc2c(Cl)cccc2Cl)cc1)c1ccnc(Nc2cccc(CS(C)(=O)=O)c2)n1 [SJ000573099-1, U17983/31/1]
CMS %inh (CMS): 10.65%
CHRF288-11 %inh (CHRF288-11): 15.56%
M07e %inh (M07e): 50.22%
ML-2 %inh (ML-2): 37.92%
MOLM-13 %inh (MOLM-13): 85.25%
U937 %inh (U937): 19.94%
MV4-11 %inh (MV4-11): 78.59%
CMK %inh (CMK): 37.49%

CCc1nn2ncccc2c1-c1ccnc(NC2CC2)n1 [SJ000573100-1, U16767/17/1]
CMS %inh (CMS): 3.597%
CHRF288-11 %inh (CHRF288-11): 0.1094%
M07e %inh (M07e): 1.664%
ML-2 %inh (ML-2): 0.1681%
MOLM-13 %inh (MOLM-13): 5.368%
U937 %inh (U937): 0.5788%
MV4-11 %inh (MV4-11): 0.7749%
CMK %inh (CMK): -4.45%

COc1cc2ncnc(Nc3ccc4c(cnn4Cc4ccccc4)c3)c2cc1OC [SJ000573101-1, R143/104/1]
CMS %inh (CMS): 32.19%
CHRF288-11 %inh (CHRF288-11): 5.092%
M07e %inh (M07e): 1.834%
ML-2 %inh (ML-2): -2.157%
MOLM-13 %inh (MOLM-13): 25.02%
U937 %inh (U937): 6.042%
MV4-11 %inh (MV4-11): 12.83%
CMK %inh (CMK): 0.8373%
